From patent US20260026504A1, “COMPOUND […] STRUCTURE, APPLICATION, AND INSECTICIDE” (Anhui Shengfeng Biochemical Co., Ltd, priority 2022, published 2026)
Read-outs that look alike come from different tables or passages of the source.

Experiments:
[1] = test system: diamondback moth (Plutella xylostella) second instar larvae; experiment: Toxicity to diamondback moth larvae by the leaf-dipping method; format: in vivo; details: for mortality at 0.25 ppm / mortality at 1 ppm: Plutella xylostella, in Brassica oleracea, foliar
Protocol: Determining the toxicity activity of part of compounds on diamondback moth (Plutella xylostella) instar larvae by the leafdipping method.
The test agents of the compounds in Table 2 were weighed out accurately with an electronic analytical balance, and the original drug was dissolved in a 10000 ppm solution with dimethyl sulfoxide as the solvent and then diluted with 0.1% of Triton solution to 1 ppm and 0.25 ppm solutions. Taking the cabbage not contacted with the liquid medicine, and cutting the leaves into 6 cm-diameter circular leaves. Soaking the leaves in the prepared liquid medicine for 15 seconds, taking out and drying, and placing the leaves into 6 cm culture dishes, wherein 1 cabbage leaf is placed in each culture dish. The same standard second instar larvae were placed in petri dishes with 10 heads per dish and 4 replicates per concentration for a total of 40 heads. After inoculation, the culture dish is placed in a constant-temperature culture chamber with the temperature of 25±1° C. and the illumination period of 16 (D) to 8 (L) h, and the number of dead and live larvae is investigated after 48 h and 72 h. A blank and a control of compound K1 and compound K2 were also provided.
The mortality is calculated according to the following formula 1, then the corrected mortality is calculated according to the formula 2, and finally the classification is carried out according to the corrected mortality value and the rating standard shown in the table 2, and the specific results are shown in the tables 3 and 4.
(§1) mortality %=(number of dead insects/total number of insects)×100% Equation 1;
(§2) corrected mortality %=[(treatment-control mortality)/(1-control mortality)]×100% Equation 2.

[2] = test system: rice leaf rollers (Cnaphalocrocis medinalis) fourth instar larvae; experiment: Toxicity to rice leaf roller fourth instar larvae by the leaf-dipping method; format: in vivo; details: for mortality at 5 ppm: Cnaphalocrocis medinalis, foliar, corrected mortality grade, 48 h, rice leaf dip
Protocol: The toxicity activity of part of the compounds on the fourth instar larvae of the rice leaf rollers (Cnaphalocrocis medinalis) is determined by the leafdipping method.
The test agents of the compounds in Table 2 were weighed out accurately with an electronic analytical balance, and the original drug was dissolved completely in dimethylsulfoxide to 10000 ppm solution and then diluted with 0.1% aqueous solution of Triton to 5 ppm solution. And (4) selecting rice plants which are planted in a laboratory and are not contacted with the liquid medicine, and cutting leaves of the rice plants to about 8 cm. Soaking the leaves in the prepared liquid medicine for 15 seconds, taking out and drying, wrapping the roots with absorbent cotton, and putting the wrapped roots into 9 cm culture dishes, wherein 3-5 rice leaves are placed in each culture dish. The water bamboo sections used as the feed for larvae are peeled off gently, and the four-instar larvae of the same standard are placed in culture dishes with 10 heads per dish and 4 repetitions per concentration for a total of 40 heads. After the inoculation, the culture dish is placed in a constant temperature culture room with the temperature of 26±1° C. and the illumination period of 16 (D): 8 (L) h, and the number of dead and live larvae is investigated after 48 h. A blank and a control of compound K1 and compound K2 were also provided.
The mortality was calculated according to the following formula 1, then the corrected mortality was calculated according to the following formula 2, and finally the rating criteria shown in table 2 were combined for ranking according to the corrected mortality value, and the specific results are shown in table 5.
as §1, §2

[3] = 48 h, corrected mortality grade, cabbage leaf dip
[4] = 48 h, corrected mortality grade, 1 ppm, 48 h, cabbage leaf dip, read-out: mortality (1 ppm) 48 h
[5] = 72 h, corrected mortality grade, 1 ppm, 72 h, cabbage leaf dip, read-out: mortality (1 ppm) 72 h

## Cc1cc(C2=NOC(c3cc(Cl)c(F)c(Cl)c3)(C(F)(F)F)C2)ccc1C(=O)Nc1cnn(C(C)C)c1 (stereo not drawn) [Compound 127]
[1]; [3]
  mortality at 0.25 ppm: 100%
[1]; [4]
  mortality at 1 ppm: 100%
[1]; [5]
  mortality at 1 ppm: 100%
[1]; concentration of 0.25 ppm
  lethality to Plutella xylostella: 100%
[2]
  mortality at 5 ppm: 100%
[2]; concentration of 5 ppm
  lethality to Cnaphalocrocis medinalis: 100%

## Cc1cc(C2=NOC(c3cc(Cl)c(F)c(Cl)c3)(C(F)(F)F)C2)ccc1C(=O)Nc1cnn(C(=O)N(C)C)c1 (stereo not drawn) [Compound 149]
[1]; [4]
  mortality at 1 ppm: 100%
[1]; [5]
  mortality at 1 ppm: 100%

## CCN(CC)C(=O)n1cc(NC(=O)c2ccc(C3=NOC(c4cc(Cl)c(F)c(Cl)c4)(C(F)(F)F)C3)cc2C)cn1 (stereo not drawn) [Compound 150]
[1]; [4]
  mortality at 1 ppm: 80 to 90%
[1]; [5]
  mortality at 1 ppm: 100%

## Cc1cc(C2=NOC(c3cc(Cl)c(F)c(Cl)c3)(C(F)(F)F)C2)ccc1C(=O)Nc1cnn(S(C)(=O)=O)c1 (stereo not drawn) [Compound 151]
[1]; [5]
  mortality at 1 ppm: 70 to 80%

## CCCS(=O)(=O)n1cc(NC(=O)c2ccc(C3=NOC(c4cc(Cl)c(F)c(Cl)c4)(C(F)(F)F)C3)cc2C)cn1 (stereo not drawn) [Compound 153]
[1]; [4]
  mortality at 1 ppm: 70 to 80%
[1]; [5]
  mortality at 1 ppm: 90 to 100%

## Cc1cc(C2=NOC(c3cc(Cl)c(F)c(Cl)c3)(C(F)(F)F)C2)ccc1C(=O)Nc1cnn(S(=O)(=O)C(C)C)c1 (stereo not drawn) [Compound 154]
[1]; [4]
  mortality at 1 ppm: 80 to 90%
[1]; [5]
  mortality at 1 ppm: 100%

## Cc1cc(C2=NOC(c3cc(Cl)c(F)c(Cl)c3)(C(F)(F)F)C2)ccc1C(=O)Nc1cnn(S(=O)(=O)c2ccccc2)c1 (stereo not drawn) [Compound 155]
[1]; [5]
  mortality at 1 ppm: 50 to 70%

## Cc1cc(C2=NOC(c3cc(Cl)c(F)c(Cl)c3)(C(F)(F)F)C2)ccc1C(=O)Nc1cnn(S(=O)(=O)C2CCCCC2)c1 (stereo not drawn) [Compound 157]
[1]; [4]
  mortality at 1 ppm: 90 to 100%
[1]; [5]
  mortality at 1 ppm: 100%

## Cc1cc(C2=NOC(c3cc(Cl)c(F)c(Cl)c3)(C(F)(F)F)C2)ccc1C(=O)Nc1c(C)n[nH]c1C (stereo not drawn) [Compound 158]
[1]; [4]
  mortality at 1 ppm: 50 to 70%
[1]; [5]
  mortality at 1 ppm: 90 to 100%

## Cc1cc(C2=NOC(c3cc(Cl)c(F)c(Cl)c3)(C(F)(F)F)C2)ccc1C(=O)Nc1c(C)nn(C)c1C (stereo not drawn) [Compound 159]
[1]; corrected mortality grade, 1 ppm, 72 h, cabbage leaf dip
  mortality (1 ppm) 72 h: B (90% to less than 100%)

## Cc1cc(C2=NOC(c3cc(Cl)c(F)c(Cl)c3)(C(F)(F)F)C2)ccc1C(=O)Nc1c(C)nn(C)c1C (stereo not drawn) [Compound 160]
[1]; [4]
  mortality at 1 ppm: 50 to 70%
[1]; [5]
  mortality at 1 ppm: 70 to 80%

## CCCn1nc(C)c(NC(=O)c2ccc(C3=NOC(c4cc(Cl)c(F)c(Cl)c4)(C(F)(F)F)C3)cc2C)c1C (stereo not drawn) [Compound 161]
[1]; [5]
  mortality at 1 ppm: 90 to 100%

## Cc1cc(C2=NOC(c3cc(Cl)c(F)c(Cl)c3)(C(F)(F)F)C2)ccc1C(=O)Nc1c(C)nn(C(C)C)c1C (stereo not drawn) [Compound 162]
[1]; [4]
  mortality at 1 ppm: 50 to 70%
[1]; [5]
  mortality at 1 ppm: 100%

## CC(=O)n1nc(C)c(NC(=O)c2ccc(C3=NOC(c4cc(Cl)c(F)c(Cl)c4)(C(F)(F)F)C3)cc2C)c1C (stereo not drawn) [Compound 168]
[1]; [5]
  mortality at 1 ppm: 90 to 100%

## CCC(=O)n1nc(C)c(NC(=O)c2ccc(C3=NOC(c4cc(Cl)c(F)c(Cl)c4)(C(F)(F)F)C3)cc2C)c1C (stereo not drawn) [Compound 169]
[1]; [5]
  mortality at 1 ppm: 80 to 90%

## CCCC(=O)n1nc(C)c(NC(=O)c2ccc(C3=NOC(c4cc(Cl)c(F)c(Cl)c4)(C(F)(F)F)C3)cc2C)c1C (stereo not drawn) [Compound 170]
[1]; [5]
  mortality at 1 ppm: 80 to 90%

## Cc1cc(C2=NOC(c3cc(Cl)c(F)c(Cl)c3)(C(F)(F)F)C2)ccc1C(=O)Nc1c(C)nn(C(=O)C(C)C)c1C (stereo not drawn) [Compound 171]
[1]; [5]
  mortality at 1 ppm: 80 to 90%

## Cc1cc(C2=NOC(c3cc(Cl)c(F)c(Cl)c3)(C(F)(F)F)C2)ccc1C(=O)Nc1c(C)nn(C(=O)C2CCC2)c1C (stereo not drawn) [Compound 174]
[1]; [5]
  mortality at 1 ppm: 70 to 80%

## Cc1cc(C2=NOC(c3cc(Cl)c(F)c(Cl)c3)(C(F)(F)F)C2)ccc1C(=O)Nc1c(C)nn(C(=O)N(C)C)c1C (stereo not drawn) [Compound 177]
[1]; [5]
  mortality at 1 ppm: 80 to 90%

## Cc1cc(C2=NOC(c3cc(Cl)cc(Cl)c3)(C(F)(F)F)C2)ccc1C(=O)Nc1ccn(C)n1 (stereo not drawn) [Compound K1, reference compound]
[1]; [3]
  mortality at 0.25 ppm: < 50%
[1]; [4]
  mortality at 1 ppm: < 50%
[1]; [5]
  mortality at 1 ppm: < 50%
[2]
  mortality at 5 ppm: < 50%
